Experimental data from patent publication US10195267B2, “Vaccination strategy” (priority 2013, dated 2019).
Oligonucleotides are written 5' to 3', each unit as a sugar letter and its base; * is a phosphorothioate linkage, no mark a phosphodiester; rarer units and linkages stand in square brackets, end groups in braces. Plain capitals give the bases only. d = 2'-deoxy (DNA)

Assays:
[1] = system: AdHBV (Hepatitis B Virus); assay: Chronic AdHBV infection, HBc-DNA vaccination followed by TLR9-L at d12; type: in vivo, mice
Excerpt: (a) Mice with chronic AdHBV-infection after 1×10^8 ifu AdHBV-infection. Time course of serum ALT following HBc-DNA vaccination (d0) and TLR9-L or CTRL treatment (d12). OVA-DNA vaccination as control. (n=5 per group). (b-f) At d15 after vaccination, (b) immunohistochemistry for CD11 b and CD8 in the liver as described in (a) at d15 after vaccination; (c) increase of HBc93-100-specific CTLs in spleen and liver detected by dextramer-staining. (n=3 per group), ND, not detectable; (d) IFNγ-producing HBc93-100-specific CTLs isolated from livers of mice after HBc-peptide-specific restimulation ex vivo; (e) total numbers of IFNγ-producing HBc93-100-specific CTLs after peptide-specific restimulation ex vivo per gram liver (n=3, per group); (f) PD-1 expression levels on HBc93-100-specific CTLs directly ex vivo. (g) Serum HBeAg levels from mice as described in (a). (h) Immunohistochemical detection and (i) quantification of HBcore-Ag-positive hepatocytes at d42 after vaccination. HPF, high power field (magnification, 100×). *P<0.05, **P<0.01, ***P<0.001 (paired Student's t-test). Data are representative of three experiments (a, c, d, e, f, g) or two experiments (b, h, i) (a, c, e, i; error bars, s.d.).
C57BL/6J mice were infected with 1×10^8 ifu AdHBV intravenously leading to chronic AdHBV infection, as reported previously (Huang et al. Gastroenterology 2012; 142:1447-50). DNA immunization was performed as described (Huang et al. Gastroenterology 2012; 142:1447-50). After immunization, HBeAg and serum ALT (alanine aminotransferase) activity measured using GPT strips on a REFLOVET™. Plus reader (Roche) were checked at indicated time points. Livers were collected for immunohistochemical analysis. Analysis of CTL number and function ex vivo was done as described previously (Huang et al. Gastroenterology 2012; 142:1447-50).
In this model, therapeutic DNA-vaccination leads to a weak increase in circulating HBV-specific CTLs but fails to control chronic_AdHBV infection. Mice with chronic AdHBV infection were subjected to DNA-vaccination with plasmids coding for the HBV core (HBc) antigen or OVA and received TLR9-L treatment 12 d later.

[2] = system: CTLs; assay: Local CTL expansion in iMATEs in the liver after systemic TLR9-L application; type: in vivo, mice
Excerpt: We discovered that CTL activation by simultaneous stimulation through the TCR, CD28 and IL-12 in vitro, together with systemic application of TLR9-L led to a 50-fold expansion of CTLs locally in the liver. Myeloid cell aggregates, herewith termed iMATEs, which formed in the liver upon TLR9-signaling, facilitate massive CTL expansion, which contributes to anti-viral immunity and overcomes chronic viral infection in mice.

[3] = system: CD8+ T cells (TCM, TEM); assay: Proliferation of adoptively transferred TCM and TEM in the liver (BrdU incorporation, 7-AAD); type: in vivo, mice; settings: 3 days after intravenous TLR9-ligand
[4] = system: recombinant adenovirus expressing OVA and luciferase (AdLOG); assay: Acute adenoviral infection, in vivo bioluminescence as indicator of antiviral CTL activity in the liver
[5] = system: lymphocytic choriomeningitis virus (LCMV); type: in vivo, mice
[6] = system: OT-I CTLs; assay: Hepatic OT-I CTL expansion and iMATE formation in AdLGO- or AdLG-infected mice
[7] = TLR9-L at d12 after HBcore-DNA vaccination

For “5′-S-TCCATGACGTTCCTGATGCT-3′ (DNA dT*dC*dC*dA*dT*dG*dA*dC*dG*dT*dT*dC*dC*dT*dG*dA*dT*dG*dC*dT) [TLR9-L]”, the “serum ALT” value ([1]; DNA vaccination (HBc or OVA) and TLR9-L 12 d later, most pronounced in HBc-vaccinated mice) was “transient rise”, the “serum HBeAg levels” value ([1]; HBc-DNA vaccination in combination with TLR9-L, after 28 d) was “significant downregulation” and the “HBV-infected (HBcore-Ag-positive) hepatocytes” value ([1]; HBc-DNA vaccination in combination with TLR9-L, d42) was “elimination”. For the same substance, the “PD1 expression on recently activated CD69+ HBcore-specific CTLs” value ([1]; HBc-DNA vaccination plus TLR9-L) was “lower expression levels”, the “IFNgamma expression of HBcore-specific CTLs upon antigen-specific restimulation ex vivo” value [1, 7] was “functional and expressed IFNγ” and the “expansion of HBc-specific CTLs in livers” value [1, 7] was “pronounced expansion”. The iMATE formation ([1]; mice with chronic AdHBV infection) was “induced iMATE formation”, the “expansion of CTLs locally in the liver” value ([2]; CTLs activated in vitro through TCR, CD28 and IL-12, with systemic TLR9-L) was 50 fold and the autoimmunity ([2]; single TLR9-L application) was “did not trigger autoimmunity”. For the same substance, the “proliferation of adoptively transferred TEM in the liver” value [3] was “marked proliferation”, the “proliferation of adoptively transferred TCM in the liver” value ([3]; cells in S and G2-M phase) was “strong proliferation” and the “in vivo bioluminescence (hepatic viral luciferase expression)” value ([4]; TLR9-L application alone, mice infected with 10^6 ifu AdLOG) was “did not significantly reduce”. The “time to efficient control of hepatic viral luciferase expression” value ([4]; transfer of 10^4 OT-I CTLs together with TLR9-L, 10^6 ifu AdLOG) was at most 4 days, the “numbers of LCMV gp33-specific CTLs in the liver” value ([5]; LCMV-specific CTL transfer (10^6/mouse) together with TLR9-L at d0, d7 and d10) was “significant increase” and the “LCMV titers in serum and liver” value ([5]; LCMV-specific CTL transfer together with TLR9-L injection) was “dropped to background levels”. For the same substance, the “numbers of LCMV-specific CTLs” value ([5]; TLR9-L application alone, d14 after the first transfer) was “did not lead to significant increases”, the “iMATE induction in livers” value ([5]; chronic LCMV-infected mice) was “can be induced” and the “numbers of hepatic OT-I CTLs” value ([6]; AdLG-infected mice (no OVA antigen), 1x10^5 activated OT-I CTLs plus TLR9-L) was “increase”. For the same substance, the “further expansion of OT-I CTLs” value ([6]; AdLGO-infected TLR9-L-injected mice, compared with AdLG-infected mice given TLR9-L) was 7 fold and the “formation of iMATEs” value ([6]; upon TLR9-L injection in adenovirus-infected mice) was “further improved”.
